Tested on: wrinkles induced by UV radiation in SKH-1 nude mice
Assay: Wrinkle improvement effect of thioredoxin-human BMPR1a ECD in UV-irradiated nude mice (Example 5)
Type: in vivo
Settings: UV 3 times/week for 11 weeks, 300 μl sample 5 times/week (proteins 1 μM, retinoic acid 0.01%)
Experimental: SKH-1 nude mice (female, 4 weeks old, DooYeol Biotech, Korea) were acclimated for about 2 weeks under conditions of a temperature of 24±2° C. and a humidity of 50±10% in a 12-hr light/12-hr dark cycle, and then divided into six groups for the experiment.
The protein group and control group were respectively treated with […] corresponding samples every week five times. For UV treatment, the back of each mouse was uniformly coated with the previously prepared sample one hour before UV radiation by using Art brush No. 3 (Hwahong, Incheon Korea).
VLX-3W stimulator(Vilber Lourmat, Marne la Vallee, France) was used for a UV radiation equipment. UV radiation was conducted three times every week for a total of 11 weeks: 40 mJ/cm^2 for 1st to 2nd weeks; 50 mJ/cm^2 for 3rd to 4th weeks; 60 mJ/cm^2 for 5th to 9th weeks; and 70 mJ/cm^2 for 10th to 11th weeks.
As the result of integration of the evaluations on respective items through observation by the naked eye, it was verified that skin wrinkles were improved by about 38% in the group coated with retinoic acid, about 42% in the group treated with Lipo-BMPR1a ECD, and about 59% in the group treated with Lipo-thioredoxin-BMPR1a ECD.

## CC1=C(/C=C/C(C)=C/C=C/C(C)=C/C(=O)O)C(C)(C)CCC1 [retinoic acid]
  skin wrinkles improved (wrinkle scores of 10 grades from photographs): about 38%

From patent publication US9452122B2, “Composition for improving skin conditions, containing extracellular domain of human bone morphogenetic protein receptor 1a as active ingredient” (JOINT CENTER FOR BIOSCIENCES, priority 2011, dated 2016)
